Experimental data from patent US20110135772A1, “SKIN CARE AGENT AND COMPOSITIONS THEREOF” (priority 2009, published 2011).

Biological target: elastase (Sus scrofa, UniProt P00772)
Assay: Elastase inhibition assay (succinyl-L-alanyl-L-alanyl-L-alanyl-p-nitroanilide hydrolysis, 410 nm)
Format: biochemical
Protocol: 300 μl (0.6 mg) of succinyl-L-alanyl-L-alanyl-L-alanyl-p-nitroanilide (the enzyme substrate), 1200 μl of buffer and varying amounts of the elastase inhibitor under testing are incubated at 37° C. for 20 minutes. The hydrolysis is measured by the spectrophotometric measurement of the release of p-nitroaniline at a wavelength of 410 nm.
The anti-aging activity of the individual molecules along with different combinations were studied and the results mentioned in Table.2

elastase, sequence (P00772 27-266): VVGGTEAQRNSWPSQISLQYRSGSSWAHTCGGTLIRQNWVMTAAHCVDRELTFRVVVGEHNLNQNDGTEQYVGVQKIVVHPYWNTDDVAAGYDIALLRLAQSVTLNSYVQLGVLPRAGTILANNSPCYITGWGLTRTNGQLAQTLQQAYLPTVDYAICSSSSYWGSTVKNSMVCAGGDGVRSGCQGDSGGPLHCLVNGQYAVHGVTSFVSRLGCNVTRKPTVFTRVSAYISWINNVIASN

## O=C(OC[C@H]1O[C@@H](OC(=O)c2cc(O)c(O)c(O)c2)[C@H](OC(=O)c2cc(O)c(O)c(O)c2)[C@@H](OC(=O)c2cc(O)c(O)c(O)c2)[C@@H]1OC(=O)c1cc(O)c(O)c(O)c1)c1cc(O)c(O)c(O)c1 [Formula 3, pentagalloyl glucose]
At 70 μg/ml
  Inhibition: 56.6% at 70 μg/ml
Synergistic studies, ratio Pentagalloyl glucose:Methyl gallate, concentration not given
  % Inhibition: 49%
